Laboratory results from patent US12139499B2, “Heteroaryl compounds for treating Huntington's disease” (PTC THERAPEUTICS, INC., priority 2018, dated 2024).
pIC50: −log10 of the molar value.

tested on: Endogenous Huntingtin Protein; assay: Endogenous Huntingtin Protein Assay (ELISA-based MSD electrochemiluminescence); type: cell-based; details: Table 1
Outline: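 Sandwich MSD electrochemiluminescence immunoassay. Capture used MW1 (expanded polyglutamine) or MAB2166 antibody coated at 1 μg/mL overnight at 4 °C. Samples were bound overnight at 4 °C, then a rabbit monoclonal detection antibody and SULFO-TAG anti-rabbit, each at 0.25 μg/mL, were applied for 1 h at room temperature.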

`Cc1cn2cc(-c3ccc4nc(N(C)C5CC6CCCC(C5)N6)sc4n3)cc(C#N)c2n1` (stereo not drawn) [Compound 279, 6-{2-[(3-exo)-9-azabicyclo[3.3.1]non-3-yl(methyl)amino][1,3]thiazolo[5,4-b]pyridin-5-yl}-2-methylimidazo[1,2-a]pyridine-8-carbonitrile] and `Cc1cn2cc(-c3ccc4nc(N(C)C5CC6CCCC(C5)N6)sc4n3)cc(F)c2n1` (stereo not drawn) [Compound 280, N-[(3-exo)-9-azabicyclo[3.3.1]non-3-yl]-5-(8-fluoro-2-methylimidazo[1,2-a]pyridin-6-yl)-N-methyl[1,3]thiazolo[5,4-b]pyridin-2-amine] cannot be ordered by pIC50: no less than 7.00 for the first, no less than 7.00 for the second.

`CN(c1nc2ccc(-c3cc(C#N)c4nn(C)cc4c3)nc2s1)C1CC2CCCC(C1)N2` (stereo not drawn) [Compound 281, 5-{2-[(3-exo)-9-azabicyclo[3.3.1]non-3-yl(methyl)amino][1,3]thiazolo[5,4-b]pyridin-5-yl}-2-methyl-2H-indazole-7-carbonitrile] and `CN(c1nc2ccc(-c3cc(F)c4nn(C)cc4c3)nc2s1)C1CC2CCCC(C1)N2` (stereo not drawn) [Compound 295, N-(9-azabicyclo[3.3.1]nonan-3-yl)-5-(7-fluoro-2-methyl-2H-indazol-5-yl)-N-methyl[1,3]thiazolo[5,4-b]pyridin-2-amine] cannot be ordered by pIC50: no less than 7.00 for the first, 6.30 to 7.00 for the second.

First: CN(c1nc2nnc(-c3ccc(-c4cn[nH]c4)cc3O)cc2s1)C1CCNCC1 [Compound 282, 2-{6-[methyl(piperidin-4-yl)amino][1,3]thiazolo[4,5-c]pyridazin-3-yl}-5-(1H-pyrazol-4-yl)phenol]
Second: CN1CCC(N(C)c2nc3nnc(-c4ccc(-c5cn[nH]c5)cc4O)cc3s2)CC1 [Compound 283, 2-{6-[methyl(1-methylpiperidin-4-yl)amino][1,3]thiazolo[4,5-c]pyridazin-3-yl}-5-(1H-pyrazol-4-yl)phenol]
The pIC50 of the first is higher: no less than 7.00 for the first, 6.00 to 6.30 for the second.

`Cc1cn2cc(-c3ncc4nc(N(C)C5CC6(C)CCC(C)(C5)N6)sc4n3)cc(F)c2n1` [Compound 284, N-[(1R,3s,5S)-1,5-dimethyl-8-azabicyclo[3.2.1]octan-3-yl]-5-(8-fluoro-2-methylimidazo[1,2-a]pyridin-6-yl)-N-methyl[1,3]thiazolo[5,4-d]pyrimidin-2-amine] and `Cc1cn2cc(-c3ccc4nc(N(C)C5CC6(C)CCC(C)(C5)N6)sc4n3)cc(F)c2n1` [Compound 292, N-[(1R,3s,5S)-1,5-dimethyl-8-azabicyclo[3.2.1]octan-3-yl]-5-(8-fluoro-2-methylimidazo[1,2-a]pyridin-6-yl)-N-methyl[1,3]thiazolo[5,4-b]pyridin-2-amine] cannot be ordered by pIC50: no less than 7.00 for the first, no less than 7.00 for the second.

`Cc1cn2cc(-c3cc4sc(N(C)C5CC6(C)CCC(C)(C5)N6)nc4cn3)cc(C#N)c2n1` [Compound 285, 6-(2-{[(1R,3s,5S)-1,5-dimethyl-8-azabicyclo[3.2.1]octan-3-yl](methyl)amino}[1,3]thiazolo[4,5-c]pyridin-6-yl)-2-methylimidazo[1,2-a]pyridine-8-carbonitrile] and `Cc1cn2cc(-c3cc4sc(N(C)C5CC6(C)CCC(C)(C5)N6)nc4cn3)cc(F)c2n1` [Compound 286, N-[(1R,3s,5S)-1,5-dimethyl-8-azabicyclo[3.2.1]octan-3-yl]-6-(8-fluoro-2-methylimidazo[1,2-a]pyridin-6-yl)-N-methyl[1,3]thiazolo[4,5-c]pyridin-2-amine] cannot be ordered by pIC50: no less than 7.00 for the first, no less than 7.00 for the second.

`CN(c1nc2cnc(-c3cc(C#N)c4nn(C)cc4c3)cc2s1)C1CC2(C)CCC(C)(C1)N2` [Compound 287, 5-(2-{[(1R,3s,5S)-1,5-dimethyl-8-azabicyclo[3.2.1]octan-3-yl](methyl)amino}[1,3]thiazolo[4,5-c]pyridin-6-yl)-2-methyl-2H-indazole-7-carbonitrile] and `CN(c1nc2cnc(-c3cc(F)c4nn(C)cc4c3)cc2s1)C1CC2(C)CCC(C)(C1)N2` [Compound 298, N-[(1R,3s,5S)-1,5-dimethyl-8-azabicyclo[3.2.1]octan-3-yl]-6-(7-fIuoro-2-methyl-2H-indazol-5-yl)-N-methyl[1,3]thiazolo[4,5-c]pyridin-2-amine] cannot be ordered by pIC50: no less than 7.00 for the first, no less than 7.00 for the second.

`Cc1cn2cc(-c3cnc4nc(N(C)C5CCNCC5)sc4n3)cc(C)c2n1` [Compound 288, 6-(2,8-dimethylimidazo[1,2-a]pyridin-6-yl)-N-methyl-N-(piperidin-4-yl)[1,3]thiazolo[4,5-b]pyrazin-2-amine] and `Cc1cn2cc(-c3cc4sc(N(C)C5CC6(C)CCC(C)(C5)N6)nc4cn3)cc(C)c2n1` [Compound 299, N-[(1R,3s,5S)-1,5-dimethyl-8-azabicyclo[3.2.1]octan-3-yl]-6-(2,8-dimethylimidazo[1,2-a]pyridin-6-yl)-N-methyl[1,3]thiazolo[4,5-c]pyridin-2-amine] cannot be ordered by pIC50: 6.30 to 7.00 for the first, no less than 7.00 for the second.

`CN(c1nc2cnc(-c3cc(F)c4nn(C)cc4c3)nc2s1)C1CC2(C)CC[C@](C)(C1)N2` (stereo partly drawn) [Compound 289, N-[(1R)-1,5-dimethyl-8-azabicyclo[3.2.1]octan-3-yl]-5-(7-fluoro-2-methyl-2H-indazol-5-yl)-N-methyl[1,3]thiazolo[5,4-d]pyrimidin-2-amine] and `CN(c1nc2ccc(-c3cc(F)c4nn(C)cc4c3)nc2s1)C1CC2(C)CCC(C)(C1)N2` [Compound 294, N-[(1R,3s,5S)-1,5-dimethyl-8-azabicyclo[3.2.1]octan-3-yl]-5-(7-fluoro-2-methyl-2H-indazol-5-yl)-N-methyl[1,3]thiazolo[5,4-b]pyridin-2-amine] cannot be ordered by pIC50: no less than 7.00 for the first, 6.30 to 7.00 for the second.

`Cc1nc2c(C#N)cc(-c3ncc4nc(N(C)C5CC6(C)CC[C@](C)(C5)N6)sc4n3)cc2o1` (stereo partly drawn) [Compound 290, 6-(2-{[(1R)-1,5-dimethyl-8-azabicyclo[3.2.1]octan-3-yl](methyl)amino}[1,3]thiazolo[5,4-d]pyrimidin-5-yl)-2-methyl-1,3-benzoxazole-4-carbonitrile] and `Cc1nc2c(C#N)cc(-c3cc4sc(N(C)C5CC6(C)CCC(C)(C5)N6)nc4cn3)cc2o1` [Compound 301, 6-(2-{[(1R,3s,5S)-1,5-dimethyl-8-azabicyclo[3.2.1]octan-3-yl](methyl)amino)[1,3]thiazolo[4,5-c]pyridin-6-yl)-2-methyl-1,3-benzoxazole-4-carbonitrile] cannot be ordered by pIC50: no less than 7.00 for the first, no less than 7.00 for the second.

`Cc1cn2cc(-c3ccc4nc(N(C)C5CC6(C)CCC(C)(C5)N6)sc4n3)cc(C#N)c2n1` [Compound 291, 6-(2-{[(1R,3s,5S)-1,5-dimethyl-8-azabicyclo[3.2.1]octan-3-yl](methyl)amino}[1,3]thiazolo[5,4-b]pyridin-5-yl)-2-methylimidazo[1,2-a]pyridine-8-carbonitrile] and `CN(c1nc2ccc(-c3cc(C#N)c4nn(C)cc4c3)nc2s1)C1CC2(C)CCC(C)(C1)N2` [Compound 293, 5-(2-{[(1R,3s,5S)-1,5-dimethyl-8-azabicyclo[3.2.1]octan-3-yl](methyl)amino}[1,3]thiazolo[5,4-b]pyridin-5-yl)-2-methyl-2H-indazole-7-carbonitrile] cannot be ordered by pIC50: no less than 7.00 for the first, no less than 7.00 for the second.

`Cc1cn2cc(-c3cc4sc(N(C)C5CC(C)(C)NC(C)(C)C5)nc4cn3)nc2c(C)n1` [Compound 296, 6-(6,8-dimethylimidazo[1,2-a]pyrazin-2-yl)-N-methyl-N-(2,2,6,6-tetramethylpiperidin-4-yl)[1,3]thiazolo[4,5-c]pyridin-2-amine] and `Cc1cn2cc(-c3cc4sc(N(C)C5CC(C)(C)NC(C)(C)C5)nc4cn3)cc2c(C)n1` [Compound 297, 6-(1,3-dimethylpyrrolo[1,2-a]pyrazin-7-yl)-N-methyl-N-(2,2,6,6-tetramethylpiperidin-4-yl)[1,3]thiazolo[4,5-c]pyridin-2-amine] cannot be ordered by pIC50: no less than 7.00 for the first, no less than 7.00 for the second.

First: Cc1cn2cc(-c3cc4sc(N(C)C5CC6(C)CCC(C)(C5)N6)nc4cn3)ccc2n1 [Compound 300, N-[(1R,3s,5S)-1,5-dimethyl-8-azabicyclo[3.2.1]octan-3-yl]-N-methyl-6-(2-methylimidazo[1,2-a]pyridin-6-yl)[1,3]thiazolo[4,5-c]pyridin-2-amine]
Second: Cc1csc2nc(-c3cc4sc(N(C)C5CC(C)(C)NC(C)(C)C5)nc4cn3)cn12 [Compound 305]
The pIC50 of the first is higher: no less than 7.00 for the first, 6.00 to 6.30 for the second.

`CC[C@]12CC[C@](CC)(CC(N(C)c3nc4cnc(-c5cc(C#N)c6nc(C)cn6c5)nc4s3)C1)N2` (stereo partly drawn) [Compound 303, 6-(2-{[(1R,3r,5S)-1,5-diethyl-8-azabicyclo[3.2.1]octan-3-yl](methyl)amino}[1,3]thiazolo[5,4-d]pyrimidin-5-yl)-2-methylimidazo[1,2-a]pyridine-8-carbonitrile] and `CC[C@]12CC[C@](CC)(CC(N(C)c3nc4cnc(-c5cc(F)c6nc(C)cn6c5)nc4s3)C1)N2` (stereo partly drawn) [Compound 304, N-[(1R,3r,5S)-1,5-diethyl-8-azabicyclo[3.2.1]octan-3-yl]-5-(8-fluoro-2-methylimidazo[1,2-a]pyridin-6-yl)-N-methyl[1,3]thiazolo[5,4-d]pyrimidin-2-amine] cannot be ordered by pIC50: no less than 7.00 for the first, 6.30 to 7.00 for the second.

`Cc1cn2nc(-c3cc(F)c4nc(OC5CCNCC5)sc4c3)cc(C)c2n1` [Compound 306, 6-{4-fluoro-2-[(piperidin-4-yl)oxy]-1,3-benzothiazol-6-yl}-2,8-dimethylimidazo[1,2-b]pyridazine] and `Cn1cc2cc(-c3cc(F)c4nc(OC5CCNCC5)sc4c3)cc(F)c2n1` [Compound 307, 4-fluoro-6-(7-fluoro-2-methyl-2H-indazol-5-yl)-2-[(piperidin-4-yl)oxy]-1,3-benzothiazole] cannot be ordered by pIC50: no less than 7.00 for the first, no less than 7.00 for the second.

First: Cc1nn2cc(-c3cc4sc(N(C)C5CC(C)(C)NC(C)(C)C5)nc4cn3)nc2s1 [Compound 308, N-methyl-6-(2-methylimidazo[2,1-b][1,3,4]thiadiazol-6-yl)-N-(2,2,6,6-tetramethylpiperidin-4-yl)[1,3]thiazolo[4,5-c]pyridin-2-amine]
Second: Cc1cn2cc(-c3cc4sc(OC5CC(C)(C)NC(C)(C)C5)nc4cn3)cc(C#N)c2n1 [Compound 309, 2-methyl-6-{2-[(2,2,6,6-tetramethylpiperidin-4-yl)oxy][1,3]thiazolo[4,5-c]pyridin-6-yl}imidazo[1,2-a]pyridine-8-carbonitrile]
The pIC50 of the first is lower: 5.52 to 6.00 for the first, no less than 7.00 for the second.
